Test [1] is described as follows: β-Carotene bleaching assay. As to conditions: samples 1 mg/mL, 50 °C, 2 h. On the procedure: The antioxidant capacity of M. latifolia fractions and isolated constituents by β-carotene bleaching was performed according to a method described by Kassim et al. ([2019]). In brief, 210 µL of β-carotene solution (1 mg/mL in chloroform) was added to Tween 20 (42 µL) and linoleic acid (5 µL) in a round bottom flask. The chloroform was removed by rotary evaporation prior to the addition of […] of distilled water and shaken to form an emulsion. The emulsion (200 µL) was then transferred into each well of a 96-well microplate that contains 50 µL of samples (1 mg/mL). The mixture was incubated at 50 °C in the dark for 2 h, and its absorbance was measured at 470 nm at the initial time (t = 0) and every subsequent 30 min for 2 h (t = 2). Ascorbic acid, α-tocopherol, and BHT were used as positive controls. Methanol was used to replace the test samples as a negative control. The antioxidant activity (AA) was calculated according to the formula (5): (5) AA% = 1 − [(At=0 – At=2)/(Ac=0 – Ac=2)] × 100 whereby At=0 and At=2 are the absorbance of the samples measured at 0 and 2 h, respectively; Ac=0 and Ac=2 are the absorbance of negative control measured at 0 and 2 h, respectively.

The nature of test [2]: DPPH free radical scavenging assay. Particulars: for IC50 / DPPH IC50: mean ± SD of triplicates; for DPPH IC50: ND = IC50 not detected at highest tested concentration (1 mg/mL). As for the experimental part:
Free radical scavenging ability of M. latifolia fractions and compounds were determined using stable free radical 2,2-diphenyl-1-picrylhydrazyl (DPPH) following the method described by Tan et al. ([2019]). The extracts (170 μL) at varying concentrations ([…]) were mixed with 30 μL of methanolic DPPH solution (300 μM) in a 96-well microplate. The mixtures were then incubated at room temperature for 30 min in the dark, followed by an absorbance measurement at 517 nm. For the negative control well, the extract was replaced by methanol. Ascorbic acid, α-tocopherol, and BHT were used as standards.

Test [3] addresses T1, human-recombinant DPP-4 enzyme (Homo sapiens, UniProt P27487).
T1 construct: purchased Cayman Chemical (Ann Arbor, MI)
Description: DPP-4 inhibitory assay (fluorescence screening kit). The test is classed as biochemical. On the procedure:
DPP-4 inhibitor screening kit (Cayman Chemical, Ann Arbor, MI) was used to evaluate the DPP-4 inhibitory activity of the test samples based on a fluorescence assay method. Briefly, samples (10 μL) with different concentrations in DMSO were each pipetted into a 96-well plate followed by the addition of diluted assay buffer (30 μL), diluted human-recombinant DPP-4 enzyme solution (10 μL), and diluted fluorogenic substrate, Gly-Pro-aminomethylcoumarin (AMC) (50 μL). […] The 96-well plate was shaken and incubated for 30 min at 37 °C.

[4] abbreviates: highest tested concentration, read-out: DPP-4 IC50 not detected at the highest concentration.

Where “and” joins values, the source holds several entries; their conditions need not be identical. Equal values may be shown once. Read-outs that look alike come from different tables or passages of the source. Marks after values point to notes of the source that are not given here. Where only a bound is given, the exact number is not on record here.

T1 sequence (P27487 whole entry): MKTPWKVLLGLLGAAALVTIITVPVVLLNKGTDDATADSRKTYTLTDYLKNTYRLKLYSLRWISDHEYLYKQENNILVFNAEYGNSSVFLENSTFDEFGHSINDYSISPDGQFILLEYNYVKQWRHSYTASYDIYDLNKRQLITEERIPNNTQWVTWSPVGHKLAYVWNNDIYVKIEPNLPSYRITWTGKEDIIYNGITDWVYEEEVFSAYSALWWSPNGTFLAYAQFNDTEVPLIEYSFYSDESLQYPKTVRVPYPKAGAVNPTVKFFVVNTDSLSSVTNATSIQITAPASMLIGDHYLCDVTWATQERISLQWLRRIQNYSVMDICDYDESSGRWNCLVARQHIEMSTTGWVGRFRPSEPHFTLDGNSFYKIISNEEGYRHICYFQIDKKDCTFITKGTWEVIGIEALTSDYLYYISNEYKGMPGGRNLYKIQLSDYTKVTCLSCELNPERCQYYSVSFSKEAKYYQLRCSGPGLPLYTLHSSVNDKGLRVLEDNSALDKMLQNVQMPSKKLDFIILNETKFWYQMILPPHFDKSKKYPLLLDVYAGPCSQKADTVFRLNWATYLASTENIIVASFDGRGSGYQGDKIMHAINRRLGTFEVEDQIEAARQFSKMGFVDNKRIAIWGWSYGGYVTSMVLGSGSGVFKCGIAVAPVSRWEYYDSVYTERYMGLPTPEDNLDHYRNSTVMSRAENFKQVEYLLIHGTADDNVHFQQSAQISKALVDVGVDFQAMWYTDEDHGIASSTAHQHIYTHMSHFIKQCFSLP

Regarding `O=C1O[C@H]([C@@H](O)CO)C(O)=C1O` [Ascorbic acid], the “β-Carotene bleaching activity AA (%)” value in test [1] is 35.23 ± 0.02^g %. Further, in test [2], the IC50 was 85.2 µM and the “DPPH IC50” value came to 15.00 ± 0.01 µg/mL.
As to `Cc1cc(C(C)(C)C)c(O)c(C(C)(C)C)c1` [BHT, butylated hydroxytoluene], in test [1], the “β-Carotene bleaching activity AA (%)” value is 76.42% and 76.42 ± 0.02^c %. Besides, in test [2], the IC50 was 44.9 µM and the “DPPH IC50” value turned out to be 9.90 ± 0.03 µg/mL.
As for `CC[C@H](CC[C@@H](C)[C@H]1CC[C@H]2[C@@H]3CC=C4C[C@@H](O)CC[C@]4(C)[C@H]3CC[C@]12C)C(C)C` [Compound 1, β-sitosterol], the IC50 in test [3] (setting [4]) is greater than 2410 µM.
Regarding `COc1c(OC)c2c(OC)c3ccoc3cc2oc1=O` [Compound 2, halfordin], in test [1], the “β-Carotene bleaching activity AA (%)” value is 88.48% and 88.48 ± 0.02^b %. Besides, in test [2], the IC50 is 6430 µM and the “DPPH IC50” value came out at 1776.01 ± 0.16 µg/mL. The IC50 in test [3] (setting [4]) was greater than 3620 µM.
In the case of `COC(=O)/C=C/c1ccc(O)cc1` [Compound 3, methyl p-coumarate], the “β-Carotene bleaching activity AA (%)” value in test [1] was 1.08 ± 0.02^g %. For the same compound, the “DPPH IC50 not detected at the highest concentration” value in test [2] (highest tested concentration) is greater than 1000 µg/mL. Besides, the IC50 is 911 µM in test [3] (mean ± SD of triplicates, ND = IC50 not detected at highest tested concentration (1 mg/mL), read-out: DPP-4 IC50 (converted)) and 911 µM in test [3] (mean ± SD of triplicates, read-out: DPP-4 IC50 (converted)).
Regarding `O=C(O)c1ccc(O)c(O)c1` [Compound 4, protocatechuic acid], in test [3] (setting [4]), the IC50 is greater than 6490 µM.
On to `Cc1c(C)c2c(c(C)c1O)CC[C@@](C)(CCC[C@H](C)CCC[C@H](C)CCCC(C)C)O2` [α-Tocopherol], for which, in test [1], the “β-Carotene bleaching activity AA (%)” value is 98.01 ± 0.02^a %. Also, in test [2], the IC50 was 43.6 µM and the “DPPH IC50” value came to 18.79 ± 0.01 µg/mL.
